Results published in US10457639B2, “Fluorescent regulators of RASSF1A expression and human cancer cell proliferation” (GEORGETOWN UNIVERSITY, priority 2008, dated 2019).

Columns and labels:
[1] = system: PC3 cells; assay: Cell growth assay, trypan blue dye exclusion count; format: cell-based
Description: Cell Line and Cell Growth Assay. Human prostate cancer cell line PC-3 was procured from the American Type Cell Culture Collection (Manassas, Va.). Cells were grown in IMEM without phenol red (Invitrogen, Carlsbad, Calif.) with 10% fetal bovine serum, 2 mM glutamine, 100 U/mL penicillin G sodium, and 100 μg/mL streptomycin sulfate (Sigma, St. Louis, Mo.) in the presence of 5% CO2 at 37° C. For the cell growth experiment, PC-3 cells were seeded in 6-well plates in triplicate with an initial density of 2×10^3 cells per well. Twenty-four hours after seeding, the attached cells were treated with vehicle (DMSO) or 1, 5, 15, 30 and 60 μM compound. After another twenty-four hours, the cells were washed with 1×PBS, trypsinized and re-suspended in complete growth medium. Trypan blue (0.4%) was added to the cell suspension and both live and dead cells were counted using a hemocytometer.
Compounds 6-10 were screened for growth inhibition in PC-3 human prostate cancer cells using previously reported methods (Table 1; Sinha et al. The Prostate. 2006, 66, 1257-1265). […] This was unexpected, since the methyl moiety of mahanine is in the 3-position. Compound 9, with its GI50 value near that of the compound 6 series (compounds 6, 6a, 8) and a deprotected hydroxyl group in the 2-position, implies that whatever hindrance is imposed by a methyl in the 3-position can be partially overcome if steric bulk at the 2-position is reduced. Indeed, looking at the structure of mahanine, the restraint of the ether cycle may provide enough reduction of apparent bulk at the 2-position to moderate its methyl in the 3-position. Additionally, the ether ring system puts the equivalent of a methyl group in the 1-position, which could also be aiding in the low μM activity of mahanine, if the relatively lower values for the compound 6 series are any indication. Moreover, analyzing the structure of compound 10 based on the same criteria, the double-bonded carbon of the ether cycle in the 3-position along with bulk off the 2-position might explain its lesser growth inhibition when compared to mahanine, while the methyl in the 1-position still gives it better activity than compounds 7 and 7a.

[2] = system: DNA methyltransferase (DNMT); assay: DNA methyltransferase activity assay (EpiQuik kit, nuclear extracts of treated PC-3 cells); format: cell-based, human; conditions: 72 hours, 5 μM (FIG. 7 legend; method says 2 μM)
Description: Black bars: PC-3 cells were treated 72 hours with either mahanine or compound 6a at 5 μM or compound 6, 7, 7a, 8, or 9 at 15 μM and then assayed for DNMT activity using the DNMT activity kit from Epigentek. Data are mean of three independent experiments ±SEM. Grey bars: Densitometry from RT-PCR blot where the amount of RASSF1A mRNA re-expressed by mahanine treatment is normalized to 100%.
DNA methyltransferase activity assay. PC-3 cells were plated in complete growth media, treated with either mahanine or compound 6a at 2 μM or compound 6, 7, 7a, 8, 9, 10 at 15 μM for 3 days and then harvested. Nuclear extracts were prepared according to manufacturer's protocol (Nuclear extraction kit, Epigentek). DNMT activity was measured using an EpiQuik DNA methyltransferase activity assay kit (Epigentek). Results were expressed as percent DNMT activity compared to the DMSO control as 100%.
The levels of DNMT activity in treated versus untreated prostate cancer cells were measured using a DNMT assay kit from Epigentek. […] These reduced DNMT activities correlate with the pattern of RASSF1A induction described above (FIG. 7, grey bars). The data imply that inhibition of DNMT prevents hypermethylation of the RASSF1A promoter region and consequently restores RASSF1A.

Compound: COc1ccc2c(c1)[nH]c1c(C)c(OS(=O)(=O)c3cccc4c(N(C)C)cccc34)ccc12 [Compound 6a, 7-Methoxy-1-methyl-9H-carbazol-2-yl 5-(dimethylamino)naphthalene-1-sulfonate]
- cytotoxicity compared to mahanine [1]: less cytotoxic than mahanine
- GI50 ([1]; Homo sapiens, PC-3, concentration for 50% growth inhibition in PC3 cells, 24 hours of treatment, mean ± SEM of three observations, read-out: GI50): 1500 ± 110 nM
- increase in activity compared to mahanine in inhibition of growth of prostate cancer cells ([1]; refers to Table 1): 5 fold
- DNMT activity versus DMSO control [2]: most potent inhibition
